Results from patent publication US11673898B2, “Substituted inhibitors of menin-MLL and methods of use” (Kura Oncology, Inc., priority 2016, dated 2023).
pIC50: −log10 of the molar value. Like-named read-outs stand apart in the source and are kept apart here.

Assays:
MLL-AF9 BMC = assay: Cell proliferation assay (CellTiter-Glo); type: cell-based
Description: Example 9: Cell proliferation assay. The ability of a compound of the present disclosure to inhibit the growth of cells, such as human leukemia cell, acute myeloid leukemia cell, cells with an MLL fusion, control cells without an MLL fusion, VCaP, LNCaP, 22RV1, DU145, LNCaP-AR, MV4; 11, KOPN-8, ML-2, MOLM-13, RS4; 11, SEM, bone marrow cells (BMCs), MLL-AF9, MLL-AF4, MLL-ENL, MLL-CBP, MLL-GAS7, MLL-AF1p, MLL-AF6, HM-2, E2A-HLF, REH, U937, K562, KG-1, HL-60 and NB4 cells, is tested using a cell viability assay, such as the Promega CellTiter-Glo® Luminescent Cell Viability Assay (Promega Technical Bulletin, 2015, “CellTiter-Glo® Luminescent Cell Viability Assay”: 1-15, herein incorporated by reference in its entirety). Cells are plated at relevant concentrations, for example about 1×10^5-2×10^5 cells per well in a 96-well plate. A compound of the present disclosure is added at a concentration up to about 2 μM with eight, 2-fold serial dilutions for each compound. Cells are incubated at 37° C. for a period of time, for example, 72 hours, then cells in the control wells are counted. Media is changed to restore viable cell numbers to the original concentration, and compounds are re-supplied. Proliferation is measured about 72 hours later using Promega CellTiter-Glo® reagents, as per kit instructions.

Menin MLL 4-43 = target: T1, Menin MLL 4-43 (Homo sapiens, UniProt O00255); assay: Fluorescence polarization (FP) competition assay of the menin-MLL interaction; type: binding
T1 sequence (O00255 1-610): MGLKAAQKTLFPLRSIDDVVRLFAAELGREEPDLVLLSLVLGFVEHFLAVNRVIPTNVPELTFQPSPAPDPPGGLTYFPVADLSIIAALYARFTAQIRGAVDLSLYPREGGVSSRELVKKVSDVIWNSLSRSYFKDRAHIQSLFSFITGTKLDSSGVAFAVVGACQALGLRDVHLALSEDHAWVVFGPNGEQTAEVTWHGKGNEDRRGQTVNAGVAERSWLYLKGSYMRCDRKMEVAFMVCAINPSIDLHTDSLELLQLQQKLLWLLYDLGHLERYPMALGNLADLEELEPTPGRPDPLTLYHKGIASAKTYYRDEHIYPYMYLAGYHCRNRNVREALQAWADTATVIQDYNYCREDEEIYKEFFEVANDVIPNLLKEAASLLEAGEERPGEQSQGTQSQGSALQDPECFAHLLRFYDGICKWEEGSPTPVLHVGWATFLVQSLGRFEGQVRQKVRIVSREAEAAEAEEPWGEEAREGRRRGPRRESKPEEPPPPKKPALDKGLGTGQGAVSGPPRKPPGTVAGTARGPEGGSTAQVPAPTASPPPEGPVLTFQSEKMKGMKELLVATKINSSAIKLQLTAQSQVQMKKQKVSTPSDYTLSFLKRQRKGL

MV4; 11-luc tumors = assay: Efficacy study in xenotransplantation mouse model of MLL leukemia (luminescence); type: in vivo; conditions: NSG mice, 120 mg/kg b.i.d. oral gavage, 6 days of treatment
Description: Example 20: Efficacy study in xenotransplantation mouse model ofMLL leukemia. […] Luciferase expressing human MV4; 11 leukemia cells (MV4; 11-luc) were engrafted intravenously via tail vein injection (1×10^7 cells/animal) When the mean luminescence of the cells reached approximately 1.5×10^6, the tumor-bearing mice were randomly assigned to a vehicle control or a compound treatment group (5 animals per group). Animals in each of the treatment groups were administered a different compound of the present disclosure by oral gavage (120 mg/kg b.i.d, 150 mg/kg b.i.d., 200 mg/kg b.i.d., or 200 mg/kg q.d.). Body weight was measured daily, while mean luminescence was measured 6 days after initiating the treatment with compound or vehicle.

[1] = system: MV4; 11 cells (MLL-AF4 AML); assay: MTT cell proliferation assay; type: cell-based, human
Description: (§1) Example 18: Cell proliferation assays. The ability of a compound of the present disclosure to inhibit the growth of cells was tested in both MLL leukemia cell lines (e.g., MV4; 11, MOLM13 and/or KOPN8) and control cell lines (e.g., K562, REH, U937, KG-1, and/or HL-60) using the MTT cell proliferation assay (ATCC® 30-1010K). […] Cells were plated at about 1×10^5 cells per well in a 96-well plate. A compound of the present disclosure was added at a concentration up to about 2 μM with seven, 2-fold serial dilutions for each compound. Cells were incubated at 37° C. for 72 hours, then cells in the control wells were counted. Media was changed to restore viable cell numbers to the original concentration, and compounds were re-supplied. Proliferation was measured 96 hours later using MTT reagents, as per kit instructions. […] The GIso value of a compound of the present disclosure, such as Compound D of FIG. 11, was 10 nM in MV4; 11 cells (MLL-AF4 AML), 17 nM in MOLM13 cells (MLL-AF9 AML), 18 nM in KOPN8 (MLL-ENL AML) cells, greater than 2000 nM in HL-60 cells, and greater than 2000 nM in U937 cells. REH, K562, KG-1, and U937 cells are control cell lines without MLL fusions.

HL-60 cells = assay: MTT cell proliferation assay, control cell line; type: cell-based; conditions: HL-60 cells (control)
Description: as §1

U937 cells = assay: MTT cell proliferation assay, control cell line; type: cell-based
Description: as §1

[2] = system: MOLM13 cells (MLL-AF9 AML); assay: MTT cell proliferation assay; type: cell-based
Description: as §1

[3] = system: KOPN8 (MLL-ENL AML) cells; assay: MTT cell proliferation assay; type: cell-based
Description: as §1

MOLM13 cells = assay: Survival study in xenotransplantation MOLM13 xenograft model; type: in vivo, mouse
Description: For survival studies in the xenotransplantation MOLM13 xenograft model, 6 to 8-week old female NSG mice were intravenously injected with 0.5×10^6 MOLM13 cells harboring […] translocation. At day 4 after transplantation, treatment was initiated with Compound C, 75 mg/kg, b.i.d., p.o. or vehicle (20% 2-hydroxypropyl-b-cyclodextrin with 5% cremophore) and was continued for 16 consecutive days in the compound treated mice or until terminal leukemia developed in the vehicle-treated mice.
Similarly, a 120 mg/kg b.i.d. treatment regimen of Compound D was initiated on day 6 after MOLM13 transplantation and continued for 16 consecutive days in the compound treated mice or until terminal leukemia developed in the vehicle-treated mice.

[4] = system: MLL fusion protein target genes HOXA9, DLX2, MEIS1 and differentiation marker CD11B; assay: qRT-PCR gene expression in bone marrow samples of treated xenotransplantation mice; type: in vivo, mouse; conditions: Day 7 of treatment, qRT-PCR normalized to GAPDH
Description: Animals were sacrificed on Day 7 of treatment and bone marrow samples collected and prepared for gene expression analysis. Expression levels of MLL fusion protein target genes HOXA9, DLX2, and/or MEIS1 were measured by qRT-PCR and are presented in FIG. 6, FIG. 9 and FIG. 12 as fold changes normalized to GAPDH expression.

[5] = fluorescence polarization assay, read-out: Menin MLL 4-43 IC50

Compound	GI50 (MLL-AF9 BMC) [nM]	pIC50 (Menin MLL 4-43; [5])	further results
CNS(=O)(=O)N1CCN([C@@H](C)Cn2c(C#N)cc3c(C)c(CN4CCC(Nc5nc(C)nc6sc(CC(F)(F)F)cc56)CC4)ccc32)CC1 [Compound 139]	10 to 50	> 7.30	
Cc1c(CN2CCC(Nc3ncnc4sc(CC(F)(F)F)cc34)CC2)ccc2c1cc(C#N)n2C[C@H](C)N1CCN(S(C)(=O)=O)[C@H](C(N)=O)C1 [Compound 163]	< 10	> 7.30	
Cc1nc(NC2CCN(Cc3ccc4c(cc(C#N)n4C[C@H](C)N4CCC(S(C)(=O)=O)CC4)c3C)CC2)c2cc(CC(F)(F)F)sc2n1 [Compound 165]	< 10	> 7.30	Tumor growth (luminescence) relative to vehicle control (MV4; 11-luc tumors): inhibited tumor growth and induced tumor regression; pIC50 (Menin MLL 4-43; read-out: IC50 value (ability to disrupt the menin-MLL interaction, per Example 6)): > 7.30
CCc1nc(NC2CCN(Cc3ccc4c(cc(C#N)n4C[C@H](C)N4CCN(S(C)(=O)=O)CC4)c3C)CC2)c2cc(CC(F)(F)F)sc2n1 [Compound 171]	10 to 50	6.60 to 7.30	
C[C@@H](Cn1c(C#N)cc2cc(CN3CCC(Nc4nc(N)nc5sc(CC(F)(F)F)cc45)CC3)c(O)cc21)N1CCN(S(C)(=O)=O)CC1 [Compound 172]	< 10	> 7.30	
CCNc1nc(NC2CCN(Cc3ccc4c(cc(C#N)n4C[C@H](C)N4CCN(S(C)(=O)=O)CC4)c3C)CC2)c2cc(CC(F)(F)F)sc2n1 [Compound 174]	10 to 50	6.60 to 7.30	
Cc1c(CN2CCC(Nc3nc(N)nc4sc(CC(F)(F)F)cc34)CC2)ccc2c1cc(C#N)n2C[C@H](C)N1CCN(CC(N)=O)CC1 [Compound 175]	10 to 50	> 7.30	
CNC(=O)CN1CCN([C@@H](C)Cn2c(C#N)cc3c(C)c(CN4CCC(Nc5nc(N)nc6sc(CC(F)(F)F)cc56)CC4)ccc32)CC1 [Compound 176]	10 to 50	> 7.30	
CNS(=O)(=O)N1CCN([C@@H](C)Cn2c(C#N)cc3cc(CN4CCC(Nc5nc(N)nc6sc(CC(F)(F)F)cc56)CC4)c(O)cc32)CC1 [Compound 177]	< 10	> 7.30	
Cc1c(CN2CCC(Nc3nc(N)nc4sc(CC(F)(F)F)cc34)CC2)ccc2c1cc(C#N)n2C[C@H](C)N1CCN(CC(=O)N(C)C)CC1 [Compound 181]	10 to 50	> 7.30	
COc1nc(NC2CCN(Cc3ccc4c(cc(C#N)n4C[C@H](C)N4CCN(S(C)(=O)=O)CC4)c3C)CC2)c2cc(CC(F)(F)F)sc2n1 [Compound 183]	< 10	> 7.30	
CNc1nc(NC2CCN(Cc3ccc4c(cc(C#N)n4C[C@H](C)N4CCC(C)(C#N)CC4)c3C)CC2)c2cc(CC(F)(F)F)sc2n1 [Compound 199]	< 10	6.60 to 7.30	
CNc1nc(NC2CCN(Cc3ccc4c(cc(C#N)n4C[C@H](C)N4CCS(=O)(=O)CC4)c3C)CC2)c2cc(CC(F)(F)F)sc2n1 [Compound 203]	< 10	> 7.30	
CNS(=O)(=O)N1CCN([C@@H](C)Cn2c(C#N)cc3c(C)c(CN4CCC(Nc5nc(OC)nc6sc(CC(F)(F)F)cc56)CC4)ccc32)CC1 [Compound 205]	< 10	> 7.30	
CNc1nc(NC2CCN(Cc3ccc4c(cc(C#N)n4C[C@H](C)N4CCC(C)(O)CC4)c3C)CC2)c2cc(CC(F)(F)F)sc2n1 [Compound 207]	< 10	> 7.30	
CNS(=O)(=O)C1CCN([C@@H](C)Cn2c(C#N)cc3c(C)c(CN4CCC(Nc5nc(OC)nc6sc(CC(F)(F)F)cc56)CC4)ccc32)CC1 [Compound 214]	< 10	> 7.30	
CNC(=O)C1CN([C@@H](C)Cn2c(C#N)cc3c(C)c(CN4CCC(Nc5nc(NC)nc6sc(CC(F)(F)F)cc56)CC4)ccc32)CCO1 (some centres unmarked) [Compound 217]	10 to 50	> 7.30	
Cc1nc(NC2CCN(Cc3ccc4c(cc(C#N)n4C[C@H](C)N4CCC(S(C)(=O)=O)CC4)c3C)CC2)c2cc(CC(F)(F)F)sc2n1 [Compound D]			GI50 [1]: 10 nM; GI50 (HL-60 cells): > 2000 nM; GI50 (U937 cells): > 2000 nM; GI50 [2]: 17 nM; GI50 [3]: 18 nM; Median survival time (MOLM13 cells; NSG mice, 120 mg/kg b.i.d., 16 consecutive days from day 6 after MOLM13 transplantation): 24 days; Survival benefit (MOLM13 cells; versus vehicle control group): 75%; Survival benefit (MOLM13 cells; versus vehicle control group (16 days)): 18 days; Expression level of HOXA9 [4]: substantially reduced; Expression level of MEIS1 [4]: substantially reduced; Expression of differentiation marker CD1 lb [4]: elevated
